SMILES strings stand for the structures.

This passage reports EC50 and Emax results from US9834542B2, “LXR modulators” (BRISTOL-MYERS SQUIBB COMPANY, priority 2013, dated 2017).

The target in the experiment is T1, LXRβ (Homo sapiens, UniProt P55055).
T1 construct: Co-transfection expression plasmids, comprising full-length LXRα (pCMX-h LXRα[…] or LXRβ (pCMX-hLXRβ)); expressed in transfected cells; host or cells: CV-1 African Green Monkey Kidney Cells
T1 sequence (P55055 1-460): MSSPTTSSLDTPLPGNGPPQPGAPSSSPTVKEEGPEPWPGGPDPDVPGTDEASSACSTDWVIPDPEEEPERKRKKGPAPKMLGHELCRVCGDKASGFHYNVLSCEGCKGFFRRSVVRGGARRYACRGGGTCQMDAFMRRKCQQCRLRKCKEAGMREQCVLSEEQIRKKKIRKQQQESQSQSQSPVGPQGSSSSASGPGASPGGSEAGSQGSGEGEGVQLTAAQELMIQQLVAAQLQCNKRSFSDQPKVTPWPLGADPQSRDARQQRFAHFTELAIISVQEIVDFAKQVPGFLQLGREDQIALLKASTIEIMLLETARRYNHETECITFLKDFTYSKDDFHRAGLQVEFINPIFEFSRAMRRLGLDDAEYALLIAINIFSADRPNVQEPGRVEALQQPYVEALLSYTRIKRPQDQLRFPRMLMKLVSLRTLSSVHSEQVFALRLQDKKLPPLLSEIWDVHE
T1 sequence (P19793 1-462 partner): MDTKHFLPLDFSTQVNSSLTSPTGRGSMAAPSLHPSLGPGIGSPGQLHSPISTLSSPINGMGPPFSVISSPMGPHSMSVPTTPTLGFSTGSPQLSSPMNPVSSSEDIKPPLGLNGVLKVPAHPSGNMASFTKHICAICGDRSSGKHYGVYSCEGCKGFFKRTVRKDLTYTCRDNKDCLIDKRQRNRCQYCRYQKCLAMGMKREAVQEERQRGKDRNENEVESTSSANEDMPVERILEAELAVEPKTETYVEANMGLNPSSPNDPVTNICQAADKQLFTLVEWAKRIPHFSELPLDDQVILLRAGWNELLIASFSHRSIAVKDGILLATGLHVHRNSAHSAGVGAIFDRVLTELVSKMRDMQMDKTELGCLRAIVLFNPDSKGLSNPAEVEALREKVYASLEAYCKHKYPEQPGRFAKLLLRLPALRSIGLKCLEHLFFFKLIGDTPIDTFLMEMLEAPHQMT
Briefly: Co-transfection assay (LXRE luciferase reporter), LXRβ. In kind it is cell-based. The following applies: for EC50: CV-1 cells transfected with pCMX-hLXRβ and LXREx1-Tk-Luciferase, 20 hours incubation; for Emax: LXRβ co-transfection, relative to high control 1-(2,4-difluorobenzyl)-2-oxo-6-(4-phenoxyphenyl)-4-(trifluoromethyl)-1,2-dihydropyridine-3-carbonitrile, read-out: % Efficacy. The method in brief:
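Cell-based LXRβ agonism measured as LXRE-luciferase induction in transiently transfected CV-1 cells after 20 h treatment. Potency is the curve-fit EC50; efficacy is expressed as percent of a full-agonist control's maximal response.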
In general terms: A reporter such as luciferase makes a cellular process visible.

A word on the EC50: it is the midpoint of the concentration-response curve. A low value points to an effect from little substance. On to `Cc1nc(-c2cc(-c3cccc(S(C)(=O)=O)c3)ccc2-n2cc(C(F)(F)F)nc2C)c(-c2cc(F)c(OC(F)F)c(F)c2)o1` [Example 367, (4-(difluoromethoxy)-3,5-difluorophenyl)-2-methyl-4-(4-(2-methyl-4-(trifluoromethyl)-1H-imidazol-1-yl)-3′-(methylsulfonyl)-[, 1′-biphenyl]-3-yl)oxazole], for which the EC50 was found to be 0.175 µM and the Emax turned out to be 78%.

As to `Cc1nc(-c2cc(-c3cccc(S(C)(=O)=O)c3)ccc2-n2cc(C(F)(F)F)nc2C)c(-c2ccc3c(c2)C(O)C(F)(F)O3)o1` (centres unmarked) [Example 368, 2,2-difluoro-5-(2-methyl-4-(4-(2-methyl-4-(trifluoromethyl)-1H-imidazol-1-yl)-3′-(methylsulfonyl)biphenyl-3-yl)oxazol-5-yl)-2,3-dihydrobenzofuran-3-ol], the EC50 is 0.465 µM and the Emax turned out to be 77%.

Regarding `Cc1nc(-c2cc(-c3cccc(S(C)(=O)=O)c3)ccc2-n2cc(CO)nc2C)c(-c2ccc3c(c2)OC(F)(F)O3)o1` [Example 369, (1-(3-(5-(2,2-difluorobenzo[d][1,3]dioxol-5-yl)-2-methyloxazol-4-yl)-3′-(methylsulfonyl)biphenyl-4-yl)-2-methyl-1H-imidazol-4-yl)methanol], the EC50 was determined as 1.14 µM and the Emax was determined as 29%.

Regarding `Cc1nc(-c2cc(-c3cc(F)c(CO)c(S(C)(=O)=O)c3)ccc2-n2cc(C(C)(C)O)nc2C)c(-c2ccc3c(c2)OC(F)(F)O3)o1` [Example 370, 2-(1-(3-(5-(2,2-difluorobenzo[d][1,3]dioxol-5-yl)-2-methyloxazol-4-yl)-3′-fluoro-4′-(hydroxymethyl)-5′-(methylsulfonyl)biphenyl-4-yl)-2-methyl-1H-imidazol-4-yl)propan-2-ol], the half-maximal effective concentration (EC50) turned out to be 1.04 µM and the Emax came out at 26%.

With `Cc1nc(-c2cc(-c3cccc(S(C)(=O)=O)c3)ccc2-n2cc(C#N)nc2C)c(-c2ccc3c(c2)OC(F)(F)O3)o1` [Example 371, 1-(3-(5-(2,2-difluorobenzo[d][1,3]dioxol-5-yl)-2-methyloxazol-4-yl)-3′-(methylsulfonyl)biphenyl-4-yl)-2-methyl-1H-imidazole-4-carbonitrile], the response was half-maximal at 0.248 µM (EC50) and the Emax came to 45%.

Regarding `Cc1nc(-c2cc(-c3cc(F)c(CO)c(S(C)(=O)=O)c3)ccc2-n2cc(C(F)(F)F)nc2C)c(-c2ccc(OC(F)(F)F)cc2)o1` [Example 373, [3-fluoro-5-(methylsulfonyl)-4′-[2-methyl-4-(trifluoromethyl)-1H-imidazol-1-yl]-3′-(2-methyl-5-{4-[(trifluoromethyl)oxy]phenyl}-1,3-oxazol-4-yl)biphenyl-4-yl]methanol], the EC50 stood at 0.04 µM and the Emax turned out to be 97%.

As to `Cc1nc(-c2cc(-c3cc(F)c(CO)c(S(C)(=O)=O)c3)ccc2-n2cc(C(F)(F)F)nc2C)c(-c2ccc(Cl)cc2)o1` [Example 374, {3′-[5-(4-chlorophenyl)-2-methyl-1,3-oxazol-4-yl]-3-fluoro-5-(methylsulfonyl)-4′-[2-methyl-4-(trifluoromethyl)-1H-imidazol-1-yl]biphenyl-4-yl}methanol], a half-maximal effect (EC50) was put at 0.05 µM and the Emax stood at 72%.

As to `Cc1nc(-c2cc(-c3cccc(S(C)(=O)=O)c3)ccc2-n2cc(C(F)(F)F)nc2C)c(-c2ccc(Cl)cc2)o1` [Example 375, 5-(4-chlorophenyl)-2-methyl-4-{3′-(methylsulfonyl)-4-[2-methyl-4-(trifluoromethyl)-1H-imidazol-1-yl]biphenyl-3-yl}-1,3-oxazole], the EC50 came out at 0.103 µM and the Emax is 84%.

In the case of `Cc1nc(-c2cc(-c3cccc(S(C)(=O)=O)c3)ccc2-n2cc(C(F)(F)F)nc2C)c(-c2ccc(OC(F)F)c(F)c2)o1` [Example 376, 5-(4-(difluoromethoxy)-3-fluorophenyl)-2-methyl-4-(4-(2-methyl-4-(trifluoromethyl)-1H-imidazol-1-yl)-3′-(methylsulfonyl)biphenyl-3-yl)oxazole], the EC50 was determined as 0.064 µM and the Emax amounted to 84%.

Consider `Cc1nc(-c2cc(-c3cc(F)c(CO)c(S(C)(=O)=O)c3)ccc2-n2cc(C(F)(F)F)nc2C)c(-c2ccc(OC(F)F)c(F)c2)o1` [Example 377], for which the EC50 came to 0.048 µM and the Emax is 77%.

As to `Cc1nc(-c2cc(-c3cc(F)c(CO)c(S(C)(=O)=O)c3)ccc2-n2cc(C(F)(F)F)nc2C)c(-c2cccn(C(C)C)c2=O)o1` [Example 378, 3-(4-(3′-fluoro-4′-(hydroxymethyl)-4-(2-methyl-4-(trifluoromethyl)-1H-imidazol-1-yl)-5′-(methylsulfonyl)biphenyl-3-yl)-2-methyloxazol-5-yl)-1-isopropylpyridin-2(1H)-one], it took 0.049 µM to reach a half-maximal effect (EC50) and the Emax is 24%.

Regarding `Cc1nc(-c2cc(-c3cccc(S(C)(=O)=O)c3)ccc2-n2cc(C(F)(F)F)nc2C)c(-c2cccn(C(C)C)c2=O)o1` [Example 379, 1-isopropyl-3-(2-methyl-4-(4-(2-methyl-4-(trifluoromethyl)-1H-imidazol-1-yl)-3′-(methylsulfonyl)biphenyl-3-yl)oxazol-5-yl)pyridin-2(1H)-one], the response was half-maximal at 0.825 µM (EC50) and the Emax was 21%.

In the case of `COc1cc(-c2oc(C)nc2-c2cc(-c3cccc(S(C)(=O)=O)c3)ccc2-n2cc(C(F)(F)F)nc2C)ccc1OC(F)F` [Example 380, 5-(4-(difluoromethoxy)-3-methoxyphenyl)-2-methyl-4-(4-(2-methyl-4-(trifluoromethyl)-1H-imidazol-1-yl)-3′-(methylsulfonyl)biphenyl-3-yl)oxazole], the EC50 was 0.053 µM and the Emax came to 91%.

`COc1cc(-c2oc(C)nc2-c2cc(-c3cc(F)c(CO)c(S(C)(=O)=O)c3)ccc2-n2cc(C(F)(F)F)nc2C)ccc1OC(F)F` [Example 381, (3′-(5-(4-(difluoromethoxy)-3-methoxyphenyl)-2-methyloxazol-4-yl)-3-fluoro-4′-(2-methyl-4-(trifluoromethyl)-1H-imidazol-1-yl)-5-(methylsulfonyl)biphenyl-4-yl)methanol]: the response was half-maximal at 0.018 µM (EC50) and the Emax came to 81%.

`Cc1nc(-c2cc(-c3cccc(S(C)(=O)=O)c3)ccc2-n2cc(C(F)(F)F)nc2C)c(-c2ccc(OC(F)F)c(OCC3CC3)c2)o1` [Example 382, 5-(3-(cyclopropylmethoxy)-4-(difluoromethoxy)phenyl)-2-methyl-4-(4-(2-methyl-4-(trifluoromethyl)-1H-imidazol-1-yl)-3′-(methylsulfonyl)biphenyl-3-yl)oxazole]: a half-maximal response (EC50) required 0.057 µM and the Emax was determined as 62%.

With `Cc1nc(-c2cc(-c3cc(F)c(CO)c(S(C)(=O)=O)c3)ccc2-n2cc(C(F)(F)F)nc2C)c(-c2ccc(OC(F)F)c(OCC3CC3)c2)o1` [Example 383], the EC50 came out at 0.023 µM and the Emax came to 67%.

`Cc1nc(-c2cc(-c3cccc(S(C)(=O)=O)c3)ccc2-n2cc(C(F)(F)F)nc2C)c(-c2ccc(OC(F)F)nc2)o1` [Example 384, 5-(6-(difluoromethoxy)pyridin-3-yl)-2-methyl-4-(4-(2-methyl-4-(trifluoromethyl)-1H-imidazol-1-yl)-3′-(methylsulfonyl)biphenyl-3-yl)oxazole]: a half-maximal response (EC50) required 0.012 µM and the Emax was 72%.

Regarding `Cc1nc(-c2cc(-c3cc(F)c(CO)c(S(C)(=O)=O)c3)ccc2-n2cc(C(F)(F)F)nc2C)c(-c2ccc(OC(F)F)nc2)o1` [Example 385, (3′-(5-(6-(difluoromethoxy)pyridin-3-yl)-2-methyloxazol-4-yl)-3-fluoro-4′-(2-methyl-4-(trifluoromethyl)-1H-imidazol-1-yl)-5-(methylsulfonyl)biphenyl-4-yl)methanol], the midpoint of the response, the EC50, lay at 0.015 µM and the Emax amounted to 79%.

Consider `Cc1nc(-c2cc(-c3cccc(S(C)(=O)=O)c3)ccc2-n2cc(C(F)(F)F)nc2C)c(-c2ccc(OC(F)F)c(OC3CC3)c2)o1` [Example 386, 5-(3-cyclopropoxy-4-(difluoromethoxy)phenyl)-2-methyl-4-(4-(2-methyl-4-(trifluoromethyl)-1H-imidazol-1-yl)-3′-(methylsulfonyl)biphenyl-3-yl)oxazole], for which the response was half-maximal at 0.073 µM (EC50) and the Emax worked out at 64%.
